Results taken from patent US12012467B2, “Small molecule DCN1 inhibitors and therapeutic methods using the same” (THE REGENTS OF THE UNIVERSITY OF MICHIGAN, priority 2017, dated 2024).
Where two headings read alike, the source gives them in different places.

Molecular target: DCN1 (Homo sapiens (Human), UniProt Q96GG9)
Test: Competitive FP binding assay
Summary of the method: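 FP competition with DCN1 in 100 mM phosphate pH 6.5, 0.02% Tween-20, 2% DMSO, probe 5 nM final. Equilibrated 30 min at room temperature with shaking. DCN1 was His6-tagged (uncleaved), expressed in E. coli Rosetta2 and purified by Ni-NTA and gel filtration.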

[1] = bounds given in μM, read-out: Binding affinity to DCN1 (IC50)
[2] = read-out: Binding affinity to DCN1 (IC50 (nM))

Chain of DCN1 (Q96GG9 58-259): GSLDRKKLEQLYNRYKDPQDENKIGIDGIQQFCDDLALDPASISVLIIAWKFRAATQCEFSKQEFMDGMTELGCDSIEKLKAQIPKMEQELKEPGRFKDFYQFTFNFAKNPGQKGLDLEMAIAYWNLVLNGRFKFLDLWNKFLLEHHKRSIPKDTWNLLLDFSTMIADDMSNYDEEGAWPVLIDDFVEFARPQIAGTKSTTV

CCC(=O)N[C@@H](Cc1nc2ccc(C)cc2s1)C(=O)N[C@H](C(=O)N[C@@H](CCCCN)C(=O)N[C@@H]1CCOc2ccccc21)C1CCNCC1 [Example 180]
IC50 [1]: > 1 µM

CCC(=O)N[C@@H](Cc1nc2ccc(C)cc2s1)C(=O)N[C@H](C(=O)N[C@@H](CCCCN)C(=O)N[C@@H]1CCOc2ccccc21)C1CCOCC1 [Example 181]
IC50 [2]: 0.176 µM

CCC(=O)N[C@@H](Cc1nc2ccc(C)cc2s1)C(=O)N[C@H](C(=O)N[C@@H](CCCCN)C(=O)N[C@@H]1CCOc2ccccc21)C(C)(C)O [Example 182]
IC50 [2]: 0.375 µM

CCC(=O)N[C@@H](Cc1nc2ccc(C)cc2s1)C(=O)N[C@@H](Cc1cccnc1)C(=O)N[C@@H](CCCCN)C(=O)N[C@@H]1CCOc2ccccc21 [Example 183]
IC50 [2]: 0.165 µM

CCC(=O)N[C@@H](Cc1nc2ccc(C)cc2s1)C(=O)N[C@@H](Cc1ccncc1)C(=O)N[C@@H](CCCCN)C(=O)N[C@@H]1CCOc2ccccc21 [Example 184]
IC50 [2]: 0.149 µM

CCC(=O)N[C@@H](Cc1nc2ccc(C)cc2s1)C(=O)N[C@@H](C[C@H]1CC[C@H](CN)CC1)C(=O)N[C@@H](CCCCN)C(=O)N[C@@H]1CCOc2ccccc21 [Example 185]
IC50 [2]: 0.111 µM

CCC(=O)N[C@@H](Cc1nc2ccc(CC)cc2s1)C(=O)N[C@H](C(=O)N[C@@H](CCCCN)C(=O)N[C@@H]1CCOc2ccccc21)C1CCOCC1 [Example 186]
IC50 [2]: 0.169 µM

CCC(=O)N[C@@H](Cc1nc(C)c(C(C)C)s1)C(=O)N[C@H](C(=O)N[C@@H](CCCCN)C(=O)N[C@@H]1CCOc2ccccc21)C1CCOCC1 [Example 187]
IC50 [2]: 0.886 µM

CCC(=O)N[C@@H](Cc1nc2ccc(C)cc2s1)C(=O)N[C@H](C(=O)N[C@@H](CCCCN(C)C)C(=O)N[C@@H]1CCOc2ccccc21)C1CCOCC1 [Example 188]
IC50 [2]: 0.156 µM

CCC(=O)N[C@@H](Cc1nc2ccc(C)cc2s1)C(=O)N[C@H](C(=O)N[C@@H](C[C@H]1CC[C@H](CN)CC1)C(=O)N[C@@H]1CCOc2ccccc21)C1CCOCC1 [Example 189]
IC50 [2]: 0.23 µM

CCC(=O)N[C@@H](Cc1nc2ccc(C)cc2s1)C(=O)N[C@H](C(=O)N[C@H](C(=O)N[C@@H]1CCOc2ccccc21)C1CCNCC1)C1CCOCC1 [Example 190]
IC50 [2]: 0.412 µM

CCC(=O)N[C@@H](Cc1nc2ccc(C)cc2s1)C(=O)N[C@H](C(=O)N[C@@H](CC1CCNCC1)C(=O)N[C@@H]1CCOc2ccccc21)C1CCOCC1 [Example 191]
IC50 [2]: 0.187 µM

CCC(=O)N[C@@H](Cc1nc2ccc(CC)cc2s1)C(=O)N[C@H](C(=O)N[C@@H](CC1CCNCC1)C(=O)N[C@@H]1CCOc2ccccc21)C1CCOCC1 [Example 192]
IC50 [2]: 0.171 µM

CCC(=O)N[C@@H](Cc1nc2ccc(CC)cc2s1)C(=O)N[C@H](C(=O)N[C@@H](CC1CCN(C)CC1)C(=O)N[C@@H]1CCOc2ccccc21)C1CCOCC1 [Example 193]
IC50 [2]: 0.171 µM

CCC(=O)N[C@@H](Cc1nc2ccc(C)cc2o1)C(=O)N[C@H](C(=O)N[C@@H](CCCCN)C(=O)N[C@@H]1CCOc2ccccc21)C1CCOCC1 [Example 194]
IC50 [2]: 0.0938 µM

CCC(=O)N[C@@H](Cc1nc2ccc(CC)cc2o1)C(=O)N[C@H](C(=O)N[C@@H](CCCCN)C(=O)N[C@@H]1CCOc2ccccc21)C1CCCC1 [Example 195]
IC50 [2]: 0.12 µM

CCC(=O)N[C@@H](Cc1nc2ccc(CC)cc2o1)C(=O)N[C@H](C(=O)N[C@@H](CCCCN)C(=O)N[C@@H]1CCOc2ccccc21)C1CCOCC1 [Example 196]
IC50 [2]: 0.0711 µM

CCC(=O)N[C@@H](Cc1nc2ccc(C(F)(F)F)cc2o1)C(=O)N[C@H](C(=O)N[C@@H](CCCCN)C(=O)N[C@@H]1CCOc2ccccc21)C1CCOCC1 [Example 197]
IC50 [2]: 0.102 µM

CCC(=O)N[C@@H](Cc1nc2ccc(Cl)cc2o1)C(=O)N[C@H](C(=O)N[C@@H](CCCCN)C(=O)N[C@@H]1CCOc2ccccc21)C1CCOCC1 [Example 198]
IC50 [2]: 0.12 µM

CCC(=O)N[C@H](Cc1nc2ccc(Cl)cc2s1)C(=O)N[C@H](C(=O)N[C@@H](CCCCN)C(=O)N[C@@H]1CCOc2ccccc21)C1CCOCC1 [Example 199]
IC50 [1]: > 10 µM

CCC(=O)N[C@@H](Cc1nc2ccc(Cl)cc2s1)C(=O)N[C@@H](C[C@H]1CC[C@H](CN)CC1)C(=O)N[C@@H](CCCCN)C(=O)N[C@@H]1CCOc2ccccc21 [Example 200]
IC50 [2]: 0.203 µM

CCC(=O)N[C@H](Cc1nc2ccc(Cl)cc2s1)C(=O)N[C@@H](C[C@H]1CC[C@H](CN)CC1)C(=O)N[C@@H](CCCCN)C(=O)N[C@@H]1CCOc2ccccc21 [Example 201]
IC50 [1]: > 10 µM

CCC(=O)N[C@@H](Cc1nc2ccc(Cl)cc2s1)C(=O)N[C@@H](Cc1ccccn1)C(=O)N[C@@H](CCCCN)C(=O)N[C@@H]1CCOc2ccccc21 [Example 202]
IC50 [2]: 0.251 µM

CCC(=O)N[C@@H](Cc1nc2ccc(Cl)cc2s1)C(=O)N[C@@H](Cc1ccncc1)C(=O)N[C@@H](CCCCN)C(=O)N[C@@H]1CCOc2ccccc21 [Example 203]
IC50 [2]: 0.282 µM

CCC(=O)N[C@H](Cc1nc2ccc(Cl)cc2s1)C(=O)N[C@@H](C(=O)N[C@H](CCCCN)C(=O)N[C@H]1CCOc2ccccc21)C1CCOCC1 [Example 204]
IC50 [1]: > 10 µM

CN(C)CCCC[C@H](NC(=O)[C@@H](NC(=O)[C@@H](N)Cc1nc2ccc(Cl)cc2s1)C1CCCC1)C(=O)N[C@@H]1CCOc2ccccc21 [Example 205]
IC50 [1]: > 10 µM

CCC(=O)N[C@@H](Cc1nc2ccc(C(C)C)cc2s1)C(=O)N[C@H](C(=O)N[C@@H](CCCCN)C(=O)N[C@@H]1CCOc2ccccc21)C1CCOCC1 [Example 206]
IC50 [2]: 0.0429 µM

CCC(=O)N[C@@H](Cc1nc(C)c(-c2cccc(Cl)c2)s1)C(=O)N[C@H](C(=O)N[C@@H](CCCCN)C(=O)N[C@@H]1CCOc2ccccc21)C1CCOCC1 [Example 207]
IC50 [2]: 0.139 µM

CCC(=O)N[C@@H](Cc1cn2cc(Cl)ccc2n1)C(=O)N[C@H](C(=O)N[C@@H](CCCCN)C(=O)N[C@@H]1CCOc2ccccc21)C1CCOCC1 [Example 208]
IC50 [2]: 0.157 µM

CNC(=O)N[C@@H](Cc1nc2ccc(Cl)cc2s1)C(=O)N[C@H](C(=O)N[C@@H](CCCCN)C(=O)N[C@@H]1CCOc2ccccc21)C1CCOCC1 [Example 209]
IC50 [2]: 0.278 µM

CCC(=O)N[C@@H](Cc1cn2cc(Cl)ccc2n1)C(=O)N[C@H](C(=O)N[C@@H](CCCCN)C(=O)N[C@@H]1CCOc2ccccc21)C1CCCC1 [Example 212]
IC50 [2]: 0.0556 µM

CCC(=O)N[C@@H](Cc1nc2ccc(Cl)cc2s1)C(=O)N[C@H](CN)[C@@H](C)CC [Example 213]
IC50 [2]: 0.746 ± 0.072 µM

CCC(=O)N[C@@H](Cc1nc2ccc(C)cc2s1)C(=O)N[C@H](CN)[C@@H](C)CC [Example 214]
IC50 [2]: 0.491 µM

CCC(=O)N[C@@H](Cc1nc2ccc(CC)cc2s1)C(=O)N[C@H](CN)[C@@H](C)CC [Example 215]
IC50 [2]: 0.23 µM

CCC(=O)N[C@@H](Cc1nc2ccc(Cl)cc2s1)C(=O)N[C@H](CN)C1CCCC1 [Example 216]
IC50 [2]: 0.559 µM

CCC(=O)N[C@@H](Cc1nc2ccc(Cl)cc2s1)C(=O)N[C@H](CN)C1CCCCC1 [Example 217]
IC50 [2]: 0.346 µM

CCC(=O)N[C@@H](Cc1nc2ccc(Cl)cc2s1)C(=O)N[C@H](CN)CC1CCCCC1 [Example 218]
IC50 [2]: 0.316 µM

CCC(=O)N[C@@H](Cc1nc2ccc(Cl)cc2s1)C(=O)N[C@H](CN)C1CCOCC1 [Example 219]
IC50 [2]: 1.56 µM

CCC(=O)N[C@@H](Cc1nc2ccc(Cl)cc2s1)C(=O)N[C@@H](C)CN [Example 220]
IC50 [1]: > 10 µM

CCC(=O)N[C@@H](Cc1nc2ccc(Cl)c(Cl)c2s1)C(=O)N[C@H](CN)Cc1ccccc1 [Example 221]
IC50 [2]: 0.294 µM
